Assay results as given in US20260176249A1, “PROTEIN KINASE INHIBITOR, PREPARATION METHOD THEREFOR, AND APPLICATION THEREOF” (SHANDONG LUYE PHARMACEUTICAL CO., LTD., priority 2021, published 2026).

How the values were obtained:
[1] = Permeability and efflux transporter substrate evaluation in Caco-2 cells; format: in vitro ADME; parameters: Papp A→B at 120 min / Papp B→A at 120 min / efflux ratio at 120 min / Papp at 120 min: dose or concentration left out as unconfirmed; conditions: human; for Papp at 120 min: read-out: Classification Permeability; for Papp A→B at 120 min / Papp B→A at 120 min: pH 7.4, pH 7.40; for Papp A→B at 120 min: Caco-2, apical to basolateral; for Papp B→A at 120 min: Caco-2, basolateral to apical
Procedure: (§1) The cells were cultured in a carbon dioxide incubator for 21-28 days before being used for transport experiments. During this period, the culture medium was changed every four to five days.
(§2) This project uses Hank's balanced salt buffer (pH 7.40±0.05) containing 10 mM HEPES as the transport buffer. The culture medium was removed from the culture plate and the cells were washed twice with preheated transport buffer (approximately 75 μL and 40 mL of transport buffer for each apical well and basolateral receiver plate respectively). The donor solution and receiver solution were added to the corresponding cell plate wells (75 and 250 μL for each apical and basolateral well respectively), and the bidirectional transport experiment was started (apical to basolateral (A-B) and basolateral to apical (B-A)). The test concentration of the test substance was […], and two replicate wells were made for each dosing concentration. The test concentration of Digoxin was […], with dosing bidirectionally; the test concentrations of nadolol and metoprolol were both […], and they were dosed in one direction (A-B direction), and two replicate wells were made for each of the three control compounds.
(§3) The initial donor solution is the TO sample. After adding the sample, it was mixed with the transport buffer and stop solution in a certain proportion.
(§4) All samples were vortexed, and then centrifuged at 3220×g for 20 min at 20° C. A proper volume of supernatant was transferred to a sample assay plate, and the sample was stored at 2-8° C. if it was not analyzed immediately after the plate was sealed, and LC MS/MS method was used for analysis.
(§5) The Lucifer Yellow Rejection Assay was used to test the integrity of the Caco-2 cell layer.
(§6) The following formulas were used to calculate the apparent permeability coefficient (Papp, cm/s), efflux ratio (ER), and solution recovery (%) (% Solution Recovery).
(§7) [formula] [formula] [formula] • VR is the volume of the receiver side solution (side A is 0.075 mL, side B is 0.25 mL); Area is the relative surface area of the cell monolayer (0.0804 cm^2); Time is the incubation time (7200 s); C0 is the initial concentration (nM) of the test substance at the donor side or the peak area ratio of the control compound; VD is the volume of the donor side (side A is 0.075 mL, side B is 0.25 mL); CD and CR are the final concentration (nM) of the test substance at the donor side and the receiver side respectively or the peak area ratio of the control compound; • Lucifer yellow transmittance rate (% Lucifer Yellow) is calculated using the following formula:
(§8) [formula] • RFUApical and RFUBasolateral are the relative fluorescence intensity of lucifer yellow at the apical and basolateral sides respectively. VApical and VBasolateral are the sample loading volumes at the apical and basolateral sides respectively (0.075 and 0.25 mL respectively).

Caco-2 cells = assay: as above; format: in vitro ADME; parameters: Papp A→B at 120 min / Papp B→A at 120 min / efflux ratio at 120 min / Papp at 120 min: dose or concentration left out as unconfirmed; conditions: Caco-2
Procedure: as §1, §2, §3, §4, §5, §6, §7, §8

HCT116 cells [2] = assay: In vivo pharmacodynamic study of compound 1 in HCT116 tumor-bearing mice; parameters: species or system Balb/C Nude mice; conditions: 20 mg/kg once a day by gavage, vs sham group
Description: Balb/C Nude mice, SPF grade, male, weighing 18-20 g, were purchased from Jiangsu Gempharmatech Co., Ltd.
HCT116 cells were purchased from ATCC.
Matrigel Matrix, Cat. No. 354248, was purchased from Becton, Dickinson and Company.
Kolliphor® HS 15, Cat. No. 42966, was purchased from Sigma-Aldrich.
(§9) a. Establishment of tumor-bearing mouse model: HCT116 cells in the logarithmic growth phase were taken and cultured, the cells were collected and counted, and then subcutaneously inoculated into Balb/C Nude mice at 1×10^6/mouse. The tumor volume and body weight of the mice were measured regularly. 7 days after inoculation, mice with tumor volume of 150 mm3 were randomly divided into groups and treated with corresponding drugs.
b. […] The administration was performed once a day by gavage for 21 consecutive days, and the tumor volume and body weight of the mice were measured regularly.
(§10) 3. Data processing: All data were organized in EXCEL, and One-way ANOVA analysis and drawing were performed using GraphPad Prism 8.0 software. Statistical significance was achieved when p<0.05.

PLK1 kinase = biological target: T1, PLK1 kinase (Homo sapiens, UniProt P53350); assay: Inhibitory activity on PLK1 kinase; format: biochemical
T1 construct: purchased Carnabio (Carna Biosciences) 05-157
T1 sequence (P53350 whole entry): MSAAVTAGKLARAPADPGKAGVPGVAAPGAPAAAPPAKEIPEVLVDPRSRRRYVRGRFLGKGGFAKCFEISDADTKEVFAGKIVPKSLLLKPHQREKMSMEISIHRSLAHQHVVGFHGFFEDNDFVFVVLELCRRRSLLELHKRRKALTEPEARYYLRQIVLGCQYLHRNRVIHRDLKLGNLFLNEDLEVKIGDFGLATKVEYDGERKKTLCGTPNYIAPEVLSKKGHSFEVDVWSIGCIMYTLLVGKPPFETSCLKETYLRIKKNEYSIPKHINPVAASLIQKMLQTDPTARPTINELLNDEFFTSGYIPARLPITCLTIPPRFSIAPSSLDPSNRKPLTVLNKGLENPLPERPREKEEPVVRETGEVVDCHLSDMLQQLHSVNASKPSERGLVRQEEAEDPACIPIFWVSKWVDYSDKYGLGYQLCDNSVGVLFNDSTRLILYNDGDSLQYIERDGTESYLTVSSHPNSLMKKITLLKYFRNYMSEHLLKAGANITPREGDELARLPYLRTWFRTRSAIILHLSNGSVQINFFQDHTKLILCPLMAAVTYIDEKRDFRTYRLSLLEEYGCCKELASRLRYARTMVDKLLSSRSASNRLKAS
Procedure, shortened: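 TR-FRET kinase assay: PLK1 enzyme premixed with peptide substrate, reaction started by ATP addition and run at 23 °C. Detection reagent then added, 60 min at 23 °C, EnVision read. Compounds tested as 10-point 1:3 series from 1 μM top concentration, duplicate wells; curves fitted.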

HCT116 cells [3] = assay: Inhibitory activity on HCT116 cell proliferation (ATPlite); format: cell-based; conditions: Homo sapiens, HCT-116, 72 h
Procedure: Cell culture medium: RPMI1640+10% FBS (GBICO)
Cell culture plate: 96-well plate (Shanghai Jingan Biotechnology Co., Ltd.)
Detection kit: ATPlite 1step Luminescence (PerkinElmer)
Detection instrument: BioTek multifunctional microplate reader
2. Test method: HCT116 cells in the logarithmic growth phase were seeded into a white-wall clear-bottom 96-well plate at a density of 720 cells per well, and cultured overnight in a 37° C., 5% CO2 incubator. […] After adding the drug, culturing was continued for 72 h in a 37° C., 5% CO2 incubator.
GraphPad Prism 7.0 was used to process the data, the cell inhibition rate curve was obtained and IC50 was calculated.

[4] = Metabolic stability in mouse liver microsomes; format: in vitro ADME; conditions: for CLint scaled at 1 µM / half-life at 1 µM / microsomal CLint at 1 µM: mouse; for CLint scaled at 1 µM / half-life at 1 µM: pH 7.4; for microsomal CLint at 1 µM: pH 7.4, read-out: CLint(mic)
Procedure: (§11) a. Preparation of phosphate buffer: The phosphate buffer powder was dissolved in 100 mL of pure water to prepare a phosphate buffer solution with a pH of 7.4 and a concentration of 100 mM, which was stored in a 4° C. refrigerator for later use.
(§12) b. All samples as well as the reference testosterone were dissolved in DMSO to obtain a 10 mM stock solution. The 10 mM stock solution was diluted to 100 μM with acetonitrile to obtain a working solution for later use.
(§13) c. Preparation of liver microsome working solution: Each of the mouse, rat and human liver microsome stock solutions (at concentration of 20 mg/mL) was taken and diluted to 0.56 mg/mL with 100 mM phosphate buffer solution to obtain the liver microsome working solution.
(§14) d. Preparation of solution: An appropriate amount of MgCl2 was weighed and used to prepare a MgCl2 solution at a concentration of 60 mM using 100 mM phosphate buffer solution. An appropriate amount of NADPH was weighed and used to prepare a NADPH solution at a concentration of 20 mM using 100 mM phosphate buffer solution. An equal volume of 60 mM MgCl2 solution was added to prepare an NADPH working solution containing 10 mM NADPH and 30 mM MgCl2. An acetonitrile solution containing 20 ng/mL tolbutamide was prepared as the stop solution.
(§15) e. Liver microsome incubation: 2 μL of each compound and the positive drug testosterone working solution were added to 178 μL of liver microsome working solution (0.56 mg/mL), mixed gently, and pre-incubated in a vibrating constant temperature water bath pot at 37° C. for 10 min. After adding 20 μL of NADPH working solution, the mixture was placed in a vibrating constant temperature water bath pot at 37° C. and timed incubation was started for 5, 10, 20, 30 and 60 min.
(§16) f. Stopping reaction: After the corresponding time of incubation, 400 μL of stop solution was added to stop the reaction, and then the sample was immediately shaken for 1 min. The sample was centrifuged at 13500 rpm for 10 min at 10° C. After centrifugation, the supernatant was removed, diluted with water according to the needs of each compound, and analyzed by LC-MS. For the 0-minute sample, the stop solution was first added and mixed evenly with the liver microsomes, and then the NADPH working solution was added. For the negative control sample, 20 μL of 30 mM MgCl2 solution was added instead of the NADPH working solution.
(§17) T1/2 and CLint(mic) were calculated by the following formula.
(§18) [formula] [formula] • CLint(mic)=0.693/T1/2/liver microsomal protein concentration during incubation (mg/mL) • CLint(ver)=CLint(mic)*liver microsomal protein (mg)/liver weight (g)*liver weight to body weight ratio
(§19) Liver microsomal protein (mg)/liver weight (g): the value is 45 in both animal and human species.
(§20) Liver weight to body weight ratio: the parameters for mice, rats and humans are 88, 40 and 20 g/kg respectively.

[5] = Metabolic stability in rat liver microsomes; format: in vitro ADME; conditions: for CLint scaled at 1 µM / half-life at 1 µM / microsomal CLint at 1 µM: rat; for CLint scaled at 1 µM / half-life at 1 µM: pH 7.4; for microsomal CLint at 1 µM: pH 7.4, read-out: CLint(mic)
Procedure: as §11, §12, §13, §14, §15, §16, §17, §18, §19, §20

[6] = Metabolic stability in human liver microsomes; format: in vitro ADME; conditions: for CLint scaled at 1 µM / half-life at 1 µM / microsomal CLint at 1 µM: human; for CLint scaled at 1 µM / half-life at 1 µM: pH 7.4; for microsomal CLint at 1 µM: pH 7.4, read-out: CLint(mic)
Procedure: as §11, §12, §13, §14, §15, §16, §17, §18, §19, §20

HCT116 cells [7] = assay: In vivo pharmacodynamic study of compound 18 in HCT116 tumor-bearing mice; parameters: species or system Balb/C Nude mice; conditions: 10 mg/kg once a day by gavage
Procedure: as §9, §10
1. Experiment materials: Same as Test example 5.
a. Establishment of tumor-bearing mouse model: Same as Test example 5.
b. […] The administration was performed once a day by gavage for 7 consecutive days, and the tumor volume and body weight of the mice were measured regularly.
3. Data processing: Same as Test example 5.

SMILES | Papp at 120 min ([1]; Caco-2, pH 7.4) [nm/s] | Papp A→B at 120 min [1] [nm/s] | Papp B→A at 120 min [1] [nm/s] | Classification Efflux transporter substrate (Caco-2 cells) | 60 min remaining amount [4] [%] | Clearance rate [4] | CLint scaled at 1 µM [4] [L/h/kg] | half-life at 1 µM [4] [min] | microsomal CLint at 1 µM [4] [µL/min/mg] | 60 min remaining amount [5] [%] | Clearance rate [5] | CLint scaled at 1 µM [5] [L/h/kg] | half-life at 1 µM [5] [min] | microsomal CLint at 1 µM [5] [µL/min/mg] | 60 min remaining amount [6] [%] | Clearance rate [6] | CLint scaled at 1 µM [6] [L/h/kg] | half-life at 1 µM [6] [min] | microsomal CLint at 1 µM [6] [µL/min/mg] | other results
CN1CCN(c2ccc(OC(F)(F)F)c(Nc3ncc4ccc5c(C(N)=O)nn(CCO)c5c4n3)c2)CC1 [Compound 1] | 5 to 25 | 9.65 | 208 | Likely (ERa ≥ 2.00) | – | – | – | – | – | – | – | – | – | – | – | – | – | – | – | tumor inhibition rate (HCT116 cells [2]; 11 days): 82.0%; tumor inhibition rate (HCT116 cells [2]; 16 days): 86.5%; tumor inhibition rate (HCT116 cells [2]; 21 days): 88.3%
CN1CCN(c2ccc(OC(F)(F)F)c(Nc3ncc4ccc5c(C(N)=O)nn(C)c5c4n3)c2)CC1 [Compound 3] | 5 to 25 | 6.44 | 8.51 | Very unlikely or not (ERa < 2.00) | 4.32 | High | 24.5 | 13.4 | 103 | 2.74 | High | 30.3 | 4.94 | 281 | 7.83 | High | 4.72 | 15.9 | 87.4 | IC50 (PLK1 kinase): 0.000714 µM; Imax (PLK1 kinase; maximum effect caused by the compound at the test concentration): 99.57%; IC50 (HCT116 cells [3]): 0.093 µM; efflux ratio at 120 min ([1]; Caco-2, pH 7.4): 1.32
CN1CCN(c2ccc(OC(F)(F)F)c(Nc3ncc4ccc5c(C(N)=O)nn(CCF)c5c4n3)c2)CC1 [Compound 18] | 5 to 25 | 20.3 | 33.6 | Very unlikely or not (ERa < 2.00) | 4.32 | High | 24.5 | 13.4 | 103 | 2.74 | High | 30.3 | 4.94 | 281 | 7.83 | High | 4.72 | 15.9 | 87.4 | body weight decrease compared to before administration (HCT116 cells [7]; 5 days): 7.6%; body weight decrease compared to before administration (HCT116 cells [7]; 7 days): 16.1%; tumor inhibition rate (HCT116 cells [7]; 7 days, vs control group): 70.9%
